Measured values: patent publication US11844801B2, “Oral compositions of MK2 pathway inhibitor for treatment of immune conditions” (priority 2020, dated 2023)
“And” between values parts separate entries of the source, which are not always exact repeats. Equal entries are not always repeated. Where two headings read alike, the source gives them in different places. Marks after values point to notes of the source that are not given here.

Experiment: Phase 1 SAD/MAD pharmacokinetics of oral ATI-450 in healthy subjects (incl. 80/120 mg BID extension)
Format: in vivo, human
Settings: for Cmax: read-out: Cmax; for concentration at 2 day: day 2; for concentration at 3 day: day 3; for concentration at 4 day: day 4; for concentration at 5 day: day 5; for concentration at 6 day: day 6; for Vd/F: read-out: Vss/F
Procedure: Study Design. […] Single ascending dose (SAD) cohorts. […] Multiple ascending dose (MAD) cohorts. […] Blood Sampling and Bioanalysis. Two-milliliter blood samples were collected for PK analysis. […] The lower limit of quantification was 0.500 ng/mL. Pharmacokinetics. […] Bioanalysis Assay of ATI-450. Sample processing was performed by protein precipitation using a 50.0-μL sample volume. […] A triple quadrupole 6500 mass spectrometer equipped with a turbo-ion spray source was used for detection in positive ion mode. […] A linear calibration curve ranging from 0.500 to 500 ng/mL with a 1/x^2 weighting factor was used. The method was minimally required to have intra- and inter-day precision (coefficients of variation) for pooled plasma quality control samples of ≤15% except at the lower limit of quantitation, where ≤20% was acceptable. The calculated concentrations (both inter- and intra-day) were required to be within 15% of nominal at all concentrations except the lower limit of quantitation, where up to 20% deviation from nominal was acceptable. The precision and accuracy of the method exceeded these minimum requirements for assay validation.

[1] = both sexes, human, plasma, oral, 80 mg, 80 mg BID, read-out: Ctrough
[2] = both sexes, human, plasma, oral, 80 mg, 80 mg BID, day 7
[3] = both sexes, human, plasma, oral, 120 mg, 120 mg BID, day 1
[4] = both sexes, human, plasma, oral, 120 mg, 120 mg BID, read-out: Ctrough
[5] = both sexes, human, plasma, oral, 120 mg, 120 mg BID, day 7
[6] = both sexes, human, plasma, po, 10 mg, single oral dose 10 mg, fasted
[7] = both sexes, human, plasma, po, 30 mg, single oral dose 30 mg, fasted
[8] = both sexes, human, plasma, po, 50 mg, single oral dose 50 mg, fasted
[9] = both sexes, human, plasma, po, 100 mg, single oral dose 100 mg, fasted
[10] = both sexes, human, plasma, po, 100 mg, single oral dose 100 mg, fed (high-fat, high-calorie breakfast)
[11] = single oral dose 100 mg, fasted

SMILES: Cc1cnc(-c2ccnc(C(C)(C)O)n2)cc1-n1c(C)cc(OCc2ncc(F)cc2F)c(Cl)c1=O (single isomer, unassigned) [ATI-450, 3-chloro-4-((3,5-difluoropyridin-2-yl)methoxy)-2′-(2-(2-hydroxypropan-2-yl)pyrimidin-4-yl)-5′,6-dimethyl-2H-[1,4′-bipyridin]-2-one]
- Cmax (both sexes, human, plasma, oral, 80 mg, 80 mg BID, day 1): 258 ± 83.8 ng/mL
- Tmax (both sexes, human, plasma, oral, 80 mg, 80 mg BID, day 1, read-out: Tmax, median (min, max)): 2 h
- concentration at 2 day [1]: 176 ± 67.5 ng/mL
- concentration at 3 day [1]: 149 ± 54 ng/mL
- concentration at 4 day [1]: 148 ± 59.9 ng/mL
- concentration at 5 day [1]: 145 ± 78.3 ng/mL
- concentration at 6 day [1]: 144 ± 64.9 ng/mL
- AUC [2]: 2550 ± 730 ng·h/mL
- AUC(0-t) (both sexes, human, plasma, oral, 80 mg, 80 mg BID, day 7, read-out: AUC0-24, total daily exposure calculated as AUC0-12 × 2): 5100 ng·h/mL
- AUC(0-t) (both sexes, human, plasma, oral, 80 mg, 80 mg BID, day 7, read-out: AUC0-t): 4030 ± 1150 ng·h/mL
- concentration at 7 day (both sexes, human, plasma, oral, 80 mg, 80 mg BID, day 7, read-out: Cavg): 212 ± 60.8 ng/mL
- Cmax [2]: 389 ng/mL
- concentration at 7 day (both sexes, human, plasma, oral, 80 mg, 80 mg BID, day 7, read-out: Cmin): 100 ± 39.8 ng/mL
- Tmax (both sexes, human, plasma, oral, 80 mg, 80 mg BID, day 7, read-out: Tmax, median (min, max)): 2 h
- half-life (both sexes, human, plasma, oral, 80 mg, 80 mg BID, day 7, read-out: t1/2 (converted)): 14.3 ± 5.3 h
- concentration at 7 day (both sexes, human, plasma, oral, 120 mg BID, day 7, read-out: Ctrough): 156 ng/mL
- AUC [3]: 2320 ± 383 ng·h/mL
- AUC(0-t) (both sexes, human, plasma, oral, 120 mg, 120 mg BID, day 1, read-out: AUC0-t): 2310 ± 380 ng·h/mL
- Cmax [3]: 379 ± 60.6 ng/mL
- Tmax (both sexes, human, plasma, oral, 120 mg, 120 mg BID, day 1, read-out: Tmax, median (min, max)): 3 h
- concentration at 2 day [4]: 152 ± 93.3 ng/mL
- concentration at 3 day [4]: 144 ± 98.8 ng/mL
- concentration at 4 day [4]: 126 ± 84.4 ng/mL
- concentration at 5 day [4]: 145 ± 67.5 ng/mL
- concentration at 6 day [4]: 161 ± 87.5 ng/mL
- AUC [5]: 2580 ± 1030 ng·h/mL
- AUC(0-t) (both sexes, human, plasma, oral, 120 mg, 120 mg BID, day 7, read-out: AUC0-24, total daily exposure calculated as AUC0-12 × 2): 5160 ng·h/mL
- AUC(0-t) (both sexes, human, plasma, oral, 120 mg, 120 mg BID, day 7, read-out: AUC0-t): 4170 ± 2090 ng·h/mL
- concentration at 7 day (both sexes, human, plasma, oral, 120 mg, 120 mg BID, day 7, read-out: Cavg): 215 ± 85.9 ng/mL
- Cmax [5]: 416 ng/mL
- concentration at 7 day (both sexes, human, plasma, oral, 120 mg, 120 mg BID, day 7, read-out: Cmin): 96.1 ± 64.1 ng/mL
- Tmax (both sexes, human, plasma, oral, 120 mg, 120 mg BID, day 7, read-out: Tmax, median (min, max)): 2 h
- half-life (both sexes, human, plasma, oral, 120 mg, 120 mg BID, day 7, read-out: t1/2 (converted)): 8.7 ± 2.4 h
- half-life (both sexes, human, plasma, oral, MAD cohorts 10-50 mg BID, day 7, read-out: terminal half-life (mean t1/2), range over cohorts): 9 to 12 h
- half-life (both sexes, human, plasma, oral, SAD cohorts, fasted, read-out: mean t1/2, range across dose cohorts): 9 to 11 h
- Tmax (both sexes, human, plasma, oral, SAD cohorts, fasted, read-out: median Tmax, range across dose cohorts): 2 to 4 h
- Vd/F (both sexes, human, plasma, oral, 50 mg BID, day 7): 586 ± 163 L
- Vd/F (both sexes, human, plasma, oral, 80 mg BID, day 7): 690 ± 294 L
- Vd/F (both sexes, human, plasma, oral, 120 mg BID, day 7): 621 ± 183 L
- AUC(0-inf) [6]: 285 ng·h/mL
- Cmax [6]: 39.4 ng/mL
- Tmax (both sexes, human, plasma, po, 10 mg, single oral dose 10 mg, fasted, read-out: Tmax, median (min, max)): 2 h
- half-life (both sexes, human, plasma, po, 10 mg, single oral dose 10 mg, fasted, read-out: t1/2 (converted)): 8.5 h
- AUC(0-inf) [7]: 1100 ng·h/mL
- Cmax [7]: 122 ng/mL
- Tmax (both sexes, human, plasma, po, 30 mg, single oral dose 30 mg, fasted, read-out: Tmax, median (min, max)): 4 h
- half-life (both sexes, human, plasma, po, 30 mg, single oral dose 30 mg, fasted, read-out: t1/2 (converted)): 10.7 h
- AUC(0-inf) [8]: 1460 ng·h/mL
- Cmax [8]: 161 ng/mL
- Tmax (both sexes, human, plasma, po, 50 mg, single oral dose 50 mg, fasted, read-out: Tmax, median (min, max)): 3 h
- half-life (both sexes, human, plasma, po, 50 mg, single oral dose 50 mg, fasted, read-out: t1/2 (converted)): 9.1 h
- AUC(0-inf) [9]: 3650 ng·h/mL
- Cmax [9]: 426 ng/mL
- Tmax (both sexes, human, plasma, po, 100 mg, single oral dose 100 mg, fasted, read-out: Tmax, median (min, max)): 2 h
- half-life (both sexes, human, plasma, po, 100 mg, single oral dose 100 mg, fasted, read-out: t1/2 (converted)): 11.2 h
- AUC(0-inf) [10]: 4100 ng·h/mL
- Cmax [10]: 371 ng/mL
- Tmax (both sexes, human, plasma, po, 100 mg, single oral dose 100 mg, fed (high-fat, high-calorie breakfast), read-out: Tmax, median (min, max)): 6 h
- half-life (both sexes, human, plasma, po, 100 mg, single oral dose 100 mg, fed (high-fat, high-calorie breakfast), read-out: t1/2 (converted)): 6.3 h
- AUC(0-t) (single oral dose 10 mg, fasted): 276.3 ± 77.8 ng·h/mL
- CL/F (single oral dose 10 mg, fasted): 37.0 ± 8.8 L/h
- Tmax, median (min, max) (single oral dose 10 mg, fasted): 2.0 (2.0-4.0) h
- Vz/F (single oral dose 10 mg, fasted): 430.2 ± 124.0 L
- t1/2 (single oral dose 10 mg, fasted): 8.5 ± 3.2 h
- AUC(0-t) (single oral dose 30 mg, fasted): 1074.0 ± 243.5^a h*ng/mL
- CL/F (single oral dose 30 mg, fasted): 28.4 ± 7.1^a L/h
- Tmax, median (min, max) (single oral dose 30 mg, fasted): 4.0 (2.0-4.1) h
- Vz/F (single oral dose 30 mg, fasted): 451.4 ± 201.5^a L
- AUC(0-t) (single oral dose 50 mg, fasted): 1430.0 ± 254.0 ng·h/mL
- CL/F (single oral dose 50 mg, fasted): 35.1 ± 6.3 L/h
- Tmax, median (min, max) (single oral dose 50 mg, fasted): 3.0 (2.0-4.0) h
- Vz/F (single oral dose 50 mg, fasted): 445.0 ± 94.7 L
- t1/2 (single oral dose 50 mg, fasted): 9.1 ± 2.4 h
- AUC(0-t) [11]: 3489.8 ± 475.7 ng·h/mL
- CL/F [11]: 27.9 ± 4.3 L/h
- Tmax, median (min, max) [11]: 2.0 (2.0, 4.0) h and 2.0 (2.0-4.0) h
- Vz/F [11]: 439.8 ± 189.7 L
- t1/2 [11]: 11.2 ± 5.8 h
- Tmax, median (min, max) (single oral dose 100 mg, fed (high-fat, high-calorie breakfast)): 6.0 (4.0, 12.0) h
- steady state reached by day (twice-daily administration, all dose levels 10-50 mg): ≤ 2 days
